Results from ChEMBL document CHEMBL2401728, “An unexpected Dimroth rearrangement leading to annelated thieno[3,2-d][1,2,3]triazolo[1,5-a]pyrimidines with potent antitumor activity” (Eur J Med Chem, 2013).

Columns and labels:
Assay type in all cases: functional
[1] = system: HCT-15; assay: Cytotoxicity against human HCT15 cells assessed as cellular growth at 0.01 uM after 48 hrs by SRB assay relative to control
[2] = Cytotoxicity against human EKVX cells after 48 hrs by SRB assay
[3] = system: SNB-19; assay: Cytotoxicity against human SNB19 cells after 48 hrs by SRB assay; settings: SNB-19, 48 h
[4] = system: NCI-H226; assay: Cytotoxicity against human NCI-H226 cells assessed as cellular growth at 1 uM after 48 hrs by SRB assay relative to control
[5] = system: COLO 205; assay: Cytotoxicity against human COLO205 cells after 48 hrs by SRB assay; settings: COLO 205, 48 h
[6] = system: OVCAR-8; assay: Cytotoxicity against human OVCAR8 cells assessed as cellular growth at 100 uM after 48 hrs by SRB assay relative to control
[7] = Cytotoxicity against human EKVX cells assessed as cellular growth at 10 uM after 48 hrs by SRB assay relative to control
[8] = system: 786-0; assay: Cytotoxicity against human 786-0 cells assessed as cellular growth at 0.1 uM after 48 hrs by SRB assay relative to control
[9] = system: UACC-62; assay: Cytotoxicity against human UACC62 cells after 48 hrs by SRB assay; settings: UACC-62, 48 h
[10] = system: NCI-H522; assay: Cytotoxicity against human NCI-H522 cells assessed as cellular growth at 1 uM after 48 hrs by SRB assay relative to control
[11] = system: OVCAR-3; assay: Cytotoxicity against human OVCAR3 cells assessed as cellular growth at 0.01 uM after 48 hrs by SRB assay relative to control
[12] = system: UACC-257; assay: Cytotoxicity against human UACC257 cells assessed as cellular growth at 100 uM after 48 hrs by SRB assay relative to control
[13] = system: MCF7; assay: Cytotoxicity against human MCF7 cells assessed as cellular growth at 0.1 uM after 48 hrs by SRB assay relative to control
[14] = system: HCT-116; assay: Cytotoxicity against human HCT116 cells after 48 hrs by SRB assay; settings: HCT-116, 48 h
[15] = system: OVCAR-3; assay: Cytotoxicity against human OVCAR3 cells after 48 hrs by SRB assay; settings: OVCAR-3, 48 h
[16] = system: CCRF-CEM; assay: Cytotoxicity against human CCRF-CEM cells assessed as cellular growth at 0.01 uM after 48 hrs by SRB assay relative to control
[17] = system: K562; assay: Cytotoxicity against human K562 cells assessed as cellular growth at 1 uM after 48 hrs by SRB assay relative to control
[18] = system: SNB-75; assay: Cytotoxicity against human SNB75 cells assessed as cellular growth at 1 uM after 48 hrs by SRB assay relative to control
[19] = system: HCT-116; assay: Cytotoxicity against human HCT116 cells assessed as cellular growth at 0.1 uM after 48 hrs by SRB assay relative to control
[20] = system: HOP-92; assay: Cytotoxicity against human HOP92 cells assessed as cellular growth at 1 uM after 48 hrs by SRB assay relative to control
[21] = system: Malme-3M; assay: Cytotoxicity against human MALME-3M cells assessed as cellular growth at 0.1 uM after 48 hrs by SRB assay relative to control
[22] = system: T47D; assay: Cytotoxicity against human T47D cells assessed as cellular growth at 0.01 uM after 48 hrs by SRB assay relative to control
[23] = system: MDA-MB-468; assay: Cytotoxicity against human MDA-MB-468 cells after 48 hrs by SRB assay; settings: MDA-MB-468, 48 h
[24] = system: NCI-H522; assay: Cytotoxicity against human NCI-H522 cells after 48 hrs by SRB assay; settings: NCI-H522, 48 h
[25] = system: OVCAR-8; assay: Cytotoxicity against human OVCAR8 cells after 48 hrs by SRB assay; settings: OVCAR-8, 48 h
[26] = system: U-251; assay: Cytotoxicity against human U251 cells after 48 hrs by SRB assay; settings: U-251, 48 h
[27] = system: MCF7; assay: Cytotoxicity against human MCF7 cells assessed as cellular growth at 1 uM after 48 hrs by SRB assay relative to control
[28] = system: HCT-15; assay: Cytotoxicity against human HCT15 cells assessed as cellular growth at 1 uM after 48 hrs by SRB assay relative to control
[29] = system: UACC-257; assay: Cytotoxicity against human UACC257 cells assessed as cellular growth at 0.01 uM after 48 hrs by SRB assay relative to control
[30] = system: HOP-62; assay: Cytotoxicity against human HOP62 cells assessed as cellular growth at 10 uM after 48 hrs by SRB assay relative to control
[31] = system: BT-549; assay: Cytotoxicity against human BT549 cells assessed as cellular growth at 100 uM after 48 hrs by SRB assay relative to control
[32] = system: RXF 393; assay: Cytotoxicity against human RXF393 cells assessed as cellular growth at 100 uM after 48 hrs by SRB assay relative to control
[33] = system: HOP-62; assay: Cytotoxicity against human HOP62 cells assessed as cellular growth at 0.01 uM after 48 hrs by SRB assay relative to control
[34] = read-out: LC50 (the source's name)
[35] = read-out: pLC50 (the source's name) (converted)

CN1CCN(CCCn2c3c(sc4ncccc43)c(=O)n3nnc(-c4ccccc4)c23)CC1
Activity [1]: 94%
GI50 ([2]; read-out: GI50): 2120 nM
CC50 [2, 34]: 15.7 µM
TGI ([2]; read-out: TGI): 4.9 µM
GI50 ([2]; read-out: pGI50 (converted)): 2140 nM
CC50 [2, 35]: 83.2 µM
TGI ([2]; read-out: pTGI (converted)): 4.9 µM
GI50 ([3]; read-out: GI50): 2500 nM
CC50 [3, 34]: > 100 µM
TGI ([3]; read-out: TGI): 5.62 µM
GI50 ([3]; read-out: pGI50 (converted)): 2510 nM
CC50 [3, 35]: > 100 µM
TGI ([3]; read-out: pTGI (converted)): 5.62 µM
Activity [4]: 85%
GI50 ([5]; read-out: GI50): 1630 nM
CC50 [5, 34]: 6.42 µM
TGI ([5]; read-out: TGI): 3.24 µM
GI50 ([5]; read-out: pGI50 (converted)): 1620 nM
CC50 [5, 35]: 6.46 µM
TGI ([5]; read-out: pTGI (converted)): 3.24 µM
Activity [6]: -15%
Activity [7]: -43%
Activity [8]: 100%
GI50 ([9]; read-out: GI50): 16.6 µM
CC50 [9, 34]: 71 µM
TGI ([9]; read-out: TGI): 34.3 µM
GI50 ([9]; read-out: pGI50 (converted)): 16.6 µM
CC50 [9, 35]: 70.8 µM
TGI ([9]; read-out: pTGI (converted)): 34.7 µM
Activity [10]: 99%
Activity [11]: 100%
Activity [12]: -87%
Activity [13]: 87%
GI50 ([14]; read-out: GI50): 1710 nM
CC50 [14, 34]: 6.96 µM
TGI ([14]; read-out: TGI): 3.45 µM
GI50 ([14]; read-out: pGI50 (converted)): 1700 nM
CC50 [14, 35]: 6.92 µM
TGI ([14]; read-out: pTGI (converted)): 3.47 µM
GI50 ([15]; read-out: GI50): 1810 nM
CC50 [15, 34]: 6.68 µM
TGI ([15]; read-out: TGI): 3.48 µM
GI50 ([15]; read-out: pGI50 (converted)): 1820 nM
CC50 [15, 35]: 6.61 µM
TGI ([15]; read-out: pTGI (converted)): 3.47 µM
Activity [16]: 109%
Activity [17]: 86%
Activity [18]: 66%
Activity [19]: 96%
Activity [20]: 82%
Activity [21]: 81%
Activity [22]: 89%
GI50 ([23]; read-out: GI50): 1820 nM
CC50 [23, 34]: 5.96 µM
TGI ([23]; read-out: TGI): 3.29 µM
GI50 ([23]; read-out: pGI50 (converted)): 1820 nM
CC50 [23, 35]: 6.03 µM
TGI ([23]; read-out: pTGI (converted)): 3.31 µM
GI50 ([24]; read-out: GI50): 1920 nM
TGI ([24]; read-out: TGI): 3.7 µM
GI50 ([24]; read-out: pGI50 (converted)): 1910 nM
TGI ([24]; read-out: pTGI (converted)): 3.72 µM
GI50 ([25]; read-out: GI50): 1930 nM
CC50 [25, 34]: > 100 µM
TGI ([25]; read-out: TGI): 4.49 µM
GI50 ([25]; read-out: pGI50 (converted)): 1950 nM
CC50 ([25]; read-out: pLC50 (converted)): > 100 µM
TGI ([25]; read-out: pTGI (converted)): 4.47 µM
GI50 ([26]; read-out: GI50): 1820 nM
TGI ([26]; read-out: TGI): 3.43 µM
GI50 ([26]; read-out: pGI50 (converted)): 1820 nM
TGI ([26]; read-out: pTGI (converted)): 3.47 µM
Activity [27]: 82%
Activity [28]: 89%
Activity [29]: 94%
Activity [30]: -90%
Activity [31]: -81%
Activity [32]: -83%
Activity [33]: 97%
